Test results published in the NIST ThermoML archive (doi:10.1021/je800463k).
Numbers after ± are expanded uncertainties.

Assay: mn = molality of the nth substance listed, in mol/kg
Details: 101 kPa, Liquid; for electrical conductivity: Frequency=0.001 MHz, Alternating current cell with electrodes; for speed of sound: Frequency=2 MHz; for mass density: Pycnometric method

[Mg+2].[O-][Cl+3]([O-])([O-])[O-].[O-][Cl+3]([O-])([O-])[O-] [magnesium perchlorate] + CO
Details	electrical conductivity [S/m]	mass density [kg/m3]	speed of sound [m/s]	viscosity [mPa·s]
273.15 K, m1 = 0.0542	0.2699 ± 0.0001	–	1195.2 ± 6.8	0.8742 ± 0.044
273.15 K, m1 = 0.078	0.4031 ± 0.0001	–	1201.1 ± 6.8	–
273.15 K, m1 = 0.0925	0.4435 ± 0.0001	–	1203.6 ± 6.8	0.9094 ± 0.046
273.15 K, m1 = 0.1673	0.6702 ± 0.0001	–	1212.8 ± 6.9	0.9874 ± 0.049
273.15 K, m1 = 0.2872	0.9762 ± 0.0001	–	1226 ± 6.9	1.13 ± 0.055
273.15 K, m1 = 0.3228	1.058 ± 0.001	–	1230.6 ± 7	1.168 ± 0.057
273.15 K, m1 = 0.4313	1.299 ± 0.001	–	1245.5 ± 7	1.329 ± 0.064
273.15 K, m1 = 0.6444	1.752 ± 0.001	–	1268.2 ± 7.1	1.64 ± 0.077
273.15 K, m1 = 1.059	2.122 ± 0.001	–	1308.9 ± 7.3	2.393 ± 0.11
273.15 K, m1 = 1.395	2.273 ± 0.001	–	1342.5 ± 7.4	3.292 ± 0.15
273.15 K, m1 = 1.717	2.343 ± 0.001	–	1366.9 ± 7.5	3.854 ± 0.17
273.15 K, m1 = 2	2.355 ± 0.001	–	1385.5 ± 7.6	4.766 ± 0.21
283.15 K, m1 = 0.0542	0.3054 ± 0.0001	–	1162.7 ± 6.7	0.7345 ± 0.038
283.15 K, m1 = 0.078	0.4563 ± 0.0001	–	1167.8 ± 6.7	–
283.15 K, m1 = 0.0925	0.5023 ± 0.0001	–	1170.8 ± 6.7	0.768 ± 0.04
283.15 K, m1 = 0.1673	0.7619 ± 0.0001	–	1178.9 ± 6.7	0.8318 ± 0.042
283.15 K, m1 = 0.2872	1.116 ± 0.001	–	1193.9 ± 6.8	0.9437 ± 0.047
283.15 K, m1 = 0.3228	1.213 ± 0.001	–	1197.5 ± 6.8	0.9745 ± 0.048
283.15 K, m1 = 0.4313	1.497 ± 0.001	–	1213.2 ± 6.9	1.102 ± 0.054
283.15 K, m1 = 0.6444	2.001 ± 0.001	–	1236.8 ± 7	1.342 ± 0.064
283.15 K, m1 = 1.059	2.513 ± 0.001	–	1278.5 ± 7.1	1.928 ± 0.089
283.15 K, m1 = 1.395	2.731 ± 0.001	–	1313.4 ± 7.3	2.608 ± 0.12
283.15 K, m1 = 1.717	2.848 ± 0.001	–	1336.5 ± 7.4	3.023 ± 0.14
283.15 K, m1 = 2	2.892 ± 0.001	–	1358.1 ± 7.5	3.682 ± 0.16
293.15 K, m1 = 0.0542	0.3414 ± 0.0001	–	1128.4 ± 6.5	0.6286 ± 0.034
293.15 K, m1 = 0.078	0.5074 ± 0.0001	–	1134.9 ± 6.6	–
293.15 K, m1 = 0.0925	0.5615 ± 0.0001	–	1137.7 ± 6.6	0.6569 ± 0.035
293.15 K, m1 = 0.1673	0.854 ± 0.0001	–	1146 ± 6.6	0.7098 ± 0.037
293.15 K, m1 = 0.2872	1.253 ± 0.001	–	1161.8 ± 6.7	0.7995 ± 0.041
293.15 K, m1 = 0.3228	1.37 ± 0.001	–	1165.4 ± 6.7	0.8248 ± 0.042
293.15 K, m1 = 0.4313	1.702 ± 0.001	–	1181.4 ± 6.8	0.9286 ± 0.046
293.15 K, m1 = 0.6444	2.209 ± 0.001	–	1205.9 ± 6.9	1.112 ± 0.054
293.15 K, m1 = 1.059	2.926 ± 0.001	–	1247.5 ± 7	1.585 ± 0.075
293.15 K, m1 = 1.395	3.221 ± 0.001	–	1282.1 ± 7.2	2.11 ± 0.097
293.15 K, m1 = 1.717	3.39 ± 0.001	–	1307.5 ± 7.3	2.43 ± 0.11
293.15 K, m1 = 2	3.474 ± 0.001	–	1329.1 ± 7.4	2.923 ± 0.13
294 K, m1 = 0.078	–	802.89 ± 4.1	–	–
295.3 K, m1 = 0.0925	–	802.82 ± 4.5	–	–
296.85 K, m1 = 0.3228	–	829.87 ± 15	–	–
296.9 K, m1 = 0.2872	–	825.72 ± 13	–	–
297.7 K, m1 = 0.078	–	799.44 ± 3.8	–	–
298 K, m1 = 0.0925	–	800.22 ± 4.6	–	–
298.15 K, m1 = 0.0542	0.3599 ± 0.0001	–	1111.3 ± 6.5	0.5841 ± 0.032
298.15 K, m1 = 0.078	0.5344 ± 0.0001	–	1119.1 ± 6.5	–
298.15 K, m1 = 0.0925	0.5917 ± 0.0001	–	1121.2 ± 6.5	0.6098 ± 0.033
298.15 K, m1 = 0.1673	0.9009 ± 0.0001	–	1129.8 ± 6.5	0.656 ± 0.035
298.15 K, m1 = 0.2872	1.332 ± 0.001	–	1145.7 ± 6.6	0.7391 ± 0.038
298.15 K, m1 = 0.3228	1.452 ± 0.001	–	1149.1 ± 6.6	0.7618 ± 0.039
298.15 K, m1 = 0.4313	1.807 ± 0.001	–	1165.2 ± 6.7	0.856 ± 0.043
298.15 K, m1 = 0.6444	2.389 ± 0.001	–	1189.2 ± 6.8	1.019 ± 0.05
298.15 K, m1 = 1.059	3.143 ± 0.001	–	1232 ± 7	1.446 ± 0.069
298.15 K, m1 = 1.395	3.48 ± 0.001	–	1267.7 ± 7.1	1.91 ± 0.089
298.15 K, m1 = 1.717	3.683 ± 0.001	–	1293.2 ± 7.2	2.196 ± 0.1
298.15 K, m1 = 2	3.779 ± 0.001	–	1314.4 ± 7.3	2.624 ± 0.12
298.3 K, m1 = 0.1673	–	809.54 ± 8.6	–	–
299.45 K, m1 = 0.078	–	797.76 ± 3.9	–	–
299.75 K, m1 = 0.3228	–	827.21 ± 15	–	–
299.8 K, m1 = 0.0925	–	798.59 ± 4.7	–	–
299.8 K, m1 = 0.2872	–	823.08 ± 13	–	–
301.15 K, m1 = 0.078	–	796.1 ± 3.9	–	–
301.15 K, m1 = 0.1673	–	806.95 ± 8.2	–	–
